± gives the standard deviation of the averaged measurements.
System: HepaRG
Assay: LDH release cytotoxicity, % of total lysis control; higher = more cytotoxic
Conditions: 48 h
Summary of the method: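 Single-lot HepaRG cells in collagen I-coated 96-well plates were treated for 48 h in serum-free induction medium containing 0.5% DMSO with test chemicals in eight-point half-log series up to 100 µM. For total lysis, wells received 0.1% Triton X. LDH in 50 µL spent medium was assayed by resorufin fluorescence with CytoTox-ONE. Percent cytotoxicity was normalized to the on-plate vehicle and total lysis controls, with duplicates averaged.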

| Structure (SMILES) | LDH release cytotoxicity (0.0314647 µM) | LDH release cytotoxicity (0.0995 µM) | LDH release cytotoxicity (0.3146466 µM) | LDH release cytotoxicity (0.995 µM) | LDH release cytotoxicity (3.14647 µM) | LDH release cytotoxicity (9.95 µM) | LDH release cytotoxicity (31.4647 µM) | LDH release cytotoxicity (99.5 µM) | LDH release cytotoxicity (0.03162 µM) | LDH release cytotoxicity (0.1 µM) | LDH release cytotoxicity (0.3162278 µM) | LDH release cytotoxicity (1 µM) | LDH release cytotoxicity (3.16228 µM) | LDH release cytotoxicity (10 µM) | LDH release cytotoxicity (31.6228 µM) | LDH release cytotoxicity (100 µM) | LDH release cytotoxicity (0.031623 µM) | LDH release cytotoxicity (0.316228 µM) |
| --- | --- | --- | --- | --- | --- | --- | --- | --- | --- | --- | --- | --- | --- | --- | --- | --- | --- | --- |
| COc1ccc(C(c2ccc(OC)cc2)C(Cl)(Cl)Cl)cc1 [Methoxychlor] | -0.145 ± 0.82% | -0.434 ± 1.2% | -0.0516 ± 0.38% | 0.115 ± 0.092% | 0.0841 ± 0.19% | -0.153 ± 0.2% | 0.12 ± 0.78% | 17 ± 0.64% |  |  |  |  |  |  |  |  |  |  |
| COc1cccc(C(=O)NN(C(=O)c2cc(C)cc(C)c2)C(C)(C)C)c1C [Methoxyfenozide] |  |  |  |  |  |  |  |  | -1.25 ± 0.79% | -1.31 ± 0.37% | -0.377 ± 0.4% | -1.71 ± 0.41% | -1.43 ± 0.52% | -0.152 ± 0.72% | 0.244 ± 0.32% | 3.13 ± 0.26% |  |  |
| COC(=O)c1ccccc1N [Methyl 2-aminobenzoate] |  |  |  |  |  |  |  |  | -1.17 ± 0.31% | 0.00334 ± 0.73% | 0.277 ± 0.2% | -0.0267 ± 0.46% | 0.248 ± 0.12% | 0.495 ± 0.94% | 0.0802 ± 0.54% | 1.28 ± 0.41% |  |  |
| CCCCCCCCCCCC(=O)OC [Methyl dodecanoate] |  |  |  |  |  |  |  |  | 0.879 ± 1.4% | -1.07 ± 0.59% | -1.35 ± 0.79% | -1.18 ± 0.72% | -0.971 ± 0.58% | -0.971 ± 1.3% | -1.41 ± 0.49% | 0.025 ± 0.27% |  |  |
| CN=C=S [Methyl isothiocyanate] |  |  |  |  |  |  |  |  |  | -1.72 ± 1% |  | -4.608 ± 0.021% | -3.71 ± 0.42% | -2.9 ± 0.8% | 0.153 ± 0.77% | 49.2 ± 6.8% | -2.69 ± 0.49% | -3.56 ± 1.4% |
| COS(C)(=O)=O [Methyl methanesulfonate] |  |  |  |  |  |  |  |  | -1.45 ± 0.74% | -1.11 ± 0.35% | -1.7 ± 0.1% | -0.993 ± 1.2% | -1.33 ± 0.4% | -1.07 ± 0.89% | -1.15 ± 0.067% | 0.825 ± 0.66% |  |  |
| CCCCCCCC(=O)OC [Methyl octanoate] |  |  |  |  |  |  |  |  | -0.862 ± 0.64% | -0.372 ± 0.27% | -1.13 ± 0.41% | -1.52 ± 0.096% | -0.786 ± 0.032% | -1.1 ± 0.2% | -1.29 ± 0.035% | 0.214 ± 0.17% |  |  |
| COP(=S)(OC)Oc1ccc([N+](=O)[O-])cc1 [Methyl parathion] |  |  |  |  |  |  |  |  | -0.787 ± 0.9% | -0.971 ± 1.1% | 0.295 ± 1.4% | -1.21 ± 0.45% | -0.845 ± 0.36% | 0.053 ± 0.23% | 0.525 ± 0.42% | 1.01 ± 0.04% |  |  |
| COC(=O)c1ccccc1O [Methyl salicylate] |  |  |  |  |  |  |  |  | -1.8 ± 0.66% | -0.746 ± 1.1% | -0.192 ± 2.3% | -1.39 ± 0.17% | -1.33 ± 0.058% | -0.567 ± 0.066% | -1.23 ± 0.11% | 0.0854 ± 0.3% |  |  |
| C[C@](N)(Cc1ccc(O)c(O)c1)C(=O)O [Methyldopa sesquihydrate] |  |  |  |  |  |  |  |  | -0.769 ± 0.75% | -1.62 ± 1.9% | -0.864 ± 0.56% | -1.87 ± 0.72% | -1.57 ± 0.67% | -0.513 ± 0.67% | -2.01 ± 0.42% | -2.91 ± 0.43% |  |  |

Source: the supplement of paper PMC7840683
